Series [1] is described as follows: Hepatic and renal toxicity (ALT, BUN) in infected mice. The settings on record: 30 mg/kg i.p., every 12 h for 3 days. In kind it is in vivo, mouse. The procedure:
Deep-seated mouse thigh infection model. In vivo efficacy of bithionol alone or in combination with gentamicin against MRSA strain MW2 persisters was evaluated using a previously described neutropenic mouse thigh infection model with modifications. Six-week-old female CD-1 mice (20-25 g, Charles River Laboratories, Wilmington, Mass., USA) were rendered neutropenic by administering 150 mg/kg and 100 mg/kg of cyclophosphamide intraperitoneally (i.p.) at 4 days and 1 day before infection, respectively. On the day of infection, overnight culture of S. aureus MW2 were washed 3 times with sterile saline and diluted to ˜10^4 CFU/mL in saline. 50 μl of the diluted culture was injected to the right thigh of each mouse. Bithionol was dissolved in Kolliphor EL (Sigma-Aldrich, St Louis, Mo., USA)/ethanol 1:1 and then diluted 1:10 in saline to a final concentration of 30 mg/kg. […] The levels of alanine aminotransferase and blood urea nitrogen were analyzed with commercially available kits, following the manufacturer's protocol (Pointe Scientific, Canton, Mich., USA) to evaluate hepatic and renal toxicities. […] Statistical significance among each group in animal studies was analyzed by one-way ANOVA with post-hoc Tukey test using GraphPad Prism 7 (GraphPad Software, La Jolla, Calif., USA).

Series [2] can be described thus: Giant unilamellar vesicles (GUVs) assay, mammalian mimetic. Here is the method:
Giant unilamellar vesicles (GUVs) assay. GUVs were prepared by slightly modifying the electroformation method described previously. 1,2-dioleoyl-sn-glycero-3-phosphocholine (DOPC), 1,2-dioleoyl-sn-glycero-3-phospho-(1′-rac-glycerol) (DOPG), 1-palmitoyl-2-oleoyl-glycero-3-phosphocholine (POPC), cholesterol (ovine wool) and 1,2-dioleoyl-sn-glycero-3-phosphoethanolamine-N-(lissamine rhodamine B sulfonyl) (18:1 Liss Rhod PE) were purchased from Avanti Polar Lipids (Alabaster, Ala., USA). 4 mM lipid mixtures consisting of DOPC/DOPG/18:1 Liss Rhod PE (7:3:0.005) and POPC/cholesterol/18:1 Liss Rhod PE (7:3:0.005) were dissolved in chloroform respectively. Same procedure was used to prepare both kinds of GUVs. Indium tin oxide (ITO)-coated slides (50×75×1.1 mm, Delta Technologies, Loveland, Colo., USA) were coated with […] of the lipid mixture and dried in a vacuum chamber for 2 h to remove chloroform. An electroformation chamber was made by placing a 2 mm thick Teflon spacer between the two lipid-coated ITO slides. […] After adding 1 μl of compound solution to a well (final compound concentration: 1× MIC), the GUVs were observed and imaged with an optical microscope equipped with fluorescence contrast and a digital camera (63x objectives, Axio Observer. A1 & AxioCam MRm, Zeiss, Germany). […]

For another series, the system named is S. aureus MW2. As to the kind of experiment: Transmission electron microscopy. In kind it is cell-based. The settings on record: 10× MIC, 2 h. Here is the method: Transmission electron microscopy. S. aureus MW2 was grown to exponential phase (OD600=˜0.4) at 37° C. Bacterial cultures were then treated with 10× MIC of bithionol or 0.1% DMSO (control) at 37° C. for 2 h. 1 mL of the treated bacterial samples were fixed with the same volume of a 2× fixative, a mixture of 5% glutaraldehyde, 2.5% paraformaldehyde and 0.06% picric acid in 0.2 M sodium cacodylate buffer (pH 7.4). Fixed cells were washed in 0.1 M cacodylate buffer and post-fixed with 1% Osmium tetroxide (OsO4)/1.5% Potassium ferrocyanide (KFeCN6) for 1 h. The fixed cells were washed twice in water, once in maleate buffer, and incubated in the maleate buffer containing 1% uranyl acetate for lh. Cells were then washed twice in water and subsequently dehydrated in an alcohol gradient series (10 min each; 50%, 70%, 90%, 2×10 min 100%). The cells were then incubated in propyleneoxide for 1 h, infiltrated overnight in a 1:1 mixture of propyleneoxide and Spurr's low viscosity resin (Electron Microscopy sciences, Hatfield, Pa.) and polymerized at 60° C. for 48 h. Ultrathin sections (about 60 nm) were cut on a Reichert Ultracut-S microtome (Leica Microsystem, Wetzlar, Germany), picked up onto copper grids, and stained with lead citrate. Micrographs of the cells were taken using a JEOL 1200EX transmission electron microscope (Harvard Medical School EM facility).

Take `Oc1c(Cl)cc(Cl)cc1Sc1cc(Cl)cc(Cl)c1O` [bithionol, 6,6′-thio-bis-(2,4-dichlorophenol)]: in series [1], the “hepatic or renal toxicity (ALT and BUN)” value is recorded as “no signs of hepatic or renal toxicity”. Also, the “effect on 7POPC/3 cholesterol GUVs” value in series [2] is “did not cause observable effects”. In addition, the TEM findings result with S. aureus MW2 is “disrupts MRSA membranes”.

The record behind these values is patent US20220324796A1, “ANTIBIOTIC COMPOUNDS” (The General Hospital Corporation, priority 2019, published 2022).
